Test system: Plasmodium falciparum
Test: Antimalarial activity against chloroquine sensitive Plasmodium falciparum FCR-3
Format: functional
Conditions: FCR-3/Gambia

Row | SMILES | IC50
1 | O=C1c2cnc3ccccc3c2C(=O)c2c1c1ccccc1n2CCO | 330 nM
2 | CCn1c2c(c3ccccc31)C(=O)c1c[n+]([O-])c3ccccc3c1C2=O | 380 nM
3 | O=C1c2c[n+]([O-])c3ccccc3c2C(=O)c2c1c1ccccc1n2CCO | 250 nM
4 | Cn1c2c(c3ccccc31)C(=O)c1cnc3ccccc3c1C2=O | 490 nM
5 | O=C1c2c[n+]([O-])c3ccccc3c2C(=O)c2[nH]c3ccccc3c21 [CALOTHRIXIN A] | 185 nM

Further compounds by falling IC50, results first:

Row | IC50 | SMILES
6 | 6400 nM | CC(C)n1c2c(c3ccccc31)C(=O)c1cnc3ccccc3c1C2=O
7 | 2200 nM | CCn1c2c(c3ccccc31)C(=O)c1cnc3ccccc3c1C2=O
8 | 380 nM | Cn1c2c(c3ccccc31)C(=O)c1c[n+]([O-])c3ccccc3c1C2=O
9 | 320 nM | CC(C)n1c2c(c3ccccc31)C(=O)c1c[n+]([O-])c3ccccc3c1C2=O
10 | 120 nM | O=C1c2[nH]c3ccccc3c2C(=O)c2cnc3ccccc3c21 [CALOTHRIXIN B]

Reference: ChEMBL document CHEMBL2046338, “Synthesis and antimalarial activity of calothrixins A and B, and their N-alkyl derivatives” (Bioorg Med Chem Lett, 2012)
